This is an account of results in patent US20050282893A1 (priority 2004, published 2005).

In one data set the test system is RCC45. Description: 5-Fluorouracil inhibition of BrdU incorporation (ELISA), RCC45. It counts as cell-based. As for the experimental part:
(§1) A study was performed using two renal cell carcinoma cells (RCC45 and RCC54). 5-Fluorouracil was used as the chemotherapeutic agent. Cells were treated with 5-fluorouracil for 96 hours, with and without PPS. The drug effect was measured as inhibition of the incorporation of a DNA precursor (bromodeoxyuridine or BrdU) using ELISA.
In general terms: Dividing cells build labelled thymidine or BrdU into new DNA.

The subject of another data set is RCC54. Description: 5-Fluorouracil inhibition of BrdU incorporation (ELISA), RCC54. It counts as cell-based. As for the experimental part:
as §1

The test system of another data set is FaDu cells. Briefly: Paclitaxel cytotoxicity (SRB method) in hTR antisense-transfected FaDu cells. The settings on record: Homo sapiens, paclitaxel 96 hours. In kind it is cell-based. The protocol: Effect of hTR antisense on the cytotoxic effect of […]. Two clones of cells that were stably transfected with the hTR antisense were studied. The cytotoxic effect of paclitaxel was quantified using the SRB method, which measures the total cellular proteins. The cells transfected with hTR antisense were treated with IPTG for 44 (clone#1) to 57 (clone #2) days, and then with paclitaxel for 96 hours.
Background: In SRB staining, fixed cells bind dye roughly in proportion to their protein.

Data set [1] concerns human pharynx FaDu xenografts.
Protocol: Xenografts were formed by subcutaneous injection of 106 viable tumor cells in 0.1 ml physiologic saline in the right and left flank areas, and were allowed to grow for about 14 days to reach a size of >15 mm^3 before drug treatment was started. […] The saline control group received injections of 200 μl/day of physiological saline for five consecutive days. The paclitaxel group received injections of 10 mg/kg/day paclitaxel dissolved in Cremophor and ethanol (i.e., Taxol) in a volume of 200 μl for five consecutive days. […] Animal weights and tumor sizes were measured on days 1, 3, 6, 8, and 10 after initiation of the paclitaxel treatment.
The antitumor effect of the drug treatments was measured in three ways. The first was the reduction in tumor size. Tumor sizes were determined by first preparing a mold of the extruding tumor using Jeltrate, a rapidly setting molding material, and then preparing and weighing the countermold. Second, the apoptotic effect was measured. The animals were euthanized on day 10, and the tumors were harvested and fixed in formalin. Histologic sections of 5-micron thickness were prepared and stained with hematoxylin and eosin. The tumor sections were evaluated morphologically for tumor cell density, and density of apoptotic cells. Because apoptotic cells disappear over time, the density of non-apoptotic cells is a secondary indicator of apoptosis. Cell densities were determined by counting the number of cells in four randomly selected microscopic fields at 400× magnification, using image analysis procedures (Song, et al., Proc. Natl. Acad. Sci. USA, 97:8658-8663, 2000). Third, the ability of drug treatment to prolong the survival time was measured. For this study, the animals were monitored for 100 days, or until moribundity, defined by a tumor length exceeding 1.0 cm, was reached.
In data set [2] the test system is stage IIIB/IV nonsmall cell lung cancer. The settings on record: 290 patients; cited from earlier work.
The test system of another data set is anticoagulation. The settings on record: cited from earlier work.
For data set [3] the following is noted: fifteenth day of oral treatment, about 400 mg per meter squared per day; cited from earlier work.
Data set [4] relates to renal cell carcinoma cells (RCC45 and RCC54). Briefly: PPS single agent cytotoxicity, BrdU incorporation, renal cell carcinoma cells. In kind it is cell-based.
A further data set addresses telomerase (Homo sapiens, UniProt O14746). Briefly: Telomerase activity after PPS exposure, modified quantitative TRAP assay. It counts as cell-based. The protocol:
Inhibition of telomerase activity in cell lysates and intact cells. The modified Telomeric Repeat Amplification Protocol (TRAP) assay (Gan, et al., Pharm. Res., 18:488-493, 2001) was used to detect telomerase activity in cell lysate. The telomerase activity in intact cells was measured using intracellular TRAP, as follows. Cells (1×10^5) were washed twice with PBS and centrifuged. The cell pellet was resuspended in 100 μl of serum-free RPMI 1640 containing 5 u/ml of Streptolysin O, 2 μM of TS primer, and 50 μM of dNTP, and incubated at room temperature for 5 min. The enzyme streptolysin O was used to increase the cell membrane permeability to the TS primer. Upon entering a cell, the TS primer was elongated by the intracellular telomerase in situ. The elongated TS primer was then isolated from the cells and used as the template for PCR amplification. Then 200 μl of RPMI 1640 medium containing 10% FBS was added to the cells to stop the permeating process. The mixture was incubated at 30° C. for 30 min to allow the extension of intracellular TS primer by telomerase. The cells were then lyzed and the cell lysates, which contained the already extended TS primer, was directly analyzed by TRAP.
Treatment Protocol. Treatment with PPS was initiated after cells were allowed to attach to the growth surface in culture flasks. On the day of experiments, the culture medium was removed and replaced with inhibitor-containing medium. Drug concentrations of 0, 0.1, 1, 10, 100, 1000 μg/ml of PPS were employed. Telomerase activity was measured by the modified quantitative TRAP assay.

Like-named read-outs stand apart in the source and are kept apart here. Marks after values point to notes of the source that are not given here. Bounds are passed on as bounds.

Chain of telomerase (O14746 whole entry): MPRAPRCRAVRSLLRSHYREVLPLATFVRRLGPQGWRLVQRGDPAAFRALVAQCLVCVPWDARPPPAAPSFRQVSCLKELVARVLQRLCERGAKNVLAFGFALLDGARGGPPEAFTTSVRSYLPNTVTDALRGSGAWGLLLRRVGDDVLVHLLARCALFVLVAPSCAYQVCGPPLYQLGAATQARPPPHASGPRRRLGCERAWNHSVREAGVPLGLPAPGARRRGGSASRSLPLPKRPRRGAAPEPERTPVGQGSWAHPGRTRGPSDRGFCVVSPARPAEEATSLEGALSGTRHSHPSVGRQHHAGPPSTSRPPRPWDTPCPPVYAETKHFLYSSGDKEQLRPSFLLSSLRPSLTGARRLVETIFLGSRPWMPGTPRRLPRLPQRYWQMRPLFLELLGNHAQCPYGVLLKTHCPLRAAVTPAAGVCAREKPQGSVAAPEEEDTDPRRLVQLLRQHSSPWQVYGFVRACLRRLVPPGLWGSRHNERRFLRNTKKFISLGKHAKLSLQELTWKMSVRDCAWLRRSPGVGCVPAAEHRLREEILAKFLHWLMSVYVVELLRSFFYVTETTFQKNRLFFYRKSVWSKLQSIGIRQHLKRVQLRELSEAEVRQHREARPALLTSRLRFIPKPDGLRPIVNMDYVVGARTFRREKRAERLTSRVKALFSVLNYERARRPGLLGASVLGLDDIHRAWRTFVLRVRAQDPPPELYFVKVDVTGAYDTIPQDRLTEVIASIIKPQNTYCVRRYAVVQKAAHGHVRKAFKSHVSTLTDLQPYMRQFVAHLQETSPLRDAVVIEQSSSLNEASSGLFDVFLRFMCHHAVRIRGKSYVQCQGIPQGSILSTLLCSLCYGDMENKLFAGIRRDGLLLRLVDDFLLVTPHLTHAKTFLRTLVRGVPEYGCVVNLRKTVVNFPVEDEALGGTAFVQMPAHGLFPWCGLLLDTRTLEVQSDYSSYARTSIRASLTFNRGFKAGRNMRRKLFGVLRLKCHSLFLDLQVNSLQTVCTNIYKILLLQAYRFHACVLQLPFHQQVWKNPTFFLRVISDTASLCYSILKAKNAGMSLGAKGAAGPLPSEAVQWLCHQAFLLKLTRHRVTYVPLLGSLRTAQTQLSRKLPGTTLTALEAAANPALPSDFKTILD
Chain of telomerase (O60832 whole entry partner): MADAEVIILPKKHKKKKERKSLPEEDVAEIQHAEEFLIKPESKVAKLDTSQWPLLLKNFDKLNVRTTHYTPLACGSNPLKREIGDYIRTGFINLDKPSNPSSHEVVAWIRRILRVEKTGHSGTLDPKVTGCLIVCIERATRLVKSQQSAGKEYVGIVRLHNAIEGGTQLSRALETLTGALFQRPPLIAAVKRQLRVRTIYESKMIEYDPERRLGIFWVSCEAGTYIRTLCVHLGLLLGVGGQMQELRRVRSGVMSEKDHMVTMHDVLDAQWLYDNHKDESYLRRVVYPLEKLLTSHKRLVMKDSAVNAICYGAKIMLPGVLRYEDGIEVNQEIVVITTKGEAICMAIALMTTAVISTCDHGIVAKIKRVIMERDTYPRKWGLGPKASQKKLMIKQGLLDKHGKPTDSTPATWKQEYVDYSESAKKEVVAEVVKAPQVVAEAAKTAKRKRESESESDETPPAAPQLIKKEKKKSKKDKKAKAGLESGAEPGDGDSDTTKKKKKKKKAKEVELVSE
Chain of telomerase (Q9NPE3 whole entry partner): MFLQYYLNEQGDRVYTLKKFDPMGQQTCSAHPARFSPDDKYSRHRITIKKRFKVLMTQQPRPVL
Chain of telomerase (Q9NX24 whole entry partner): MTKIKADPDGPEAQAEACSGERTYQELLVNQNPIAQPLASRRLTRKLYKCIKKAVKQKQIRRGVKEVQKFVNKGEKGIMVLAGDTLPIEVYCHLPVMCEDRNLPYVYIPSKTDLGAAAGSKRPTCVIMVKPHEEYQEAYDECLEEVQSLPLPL
Chain of telomerase (Q9NY12 whole entry partner): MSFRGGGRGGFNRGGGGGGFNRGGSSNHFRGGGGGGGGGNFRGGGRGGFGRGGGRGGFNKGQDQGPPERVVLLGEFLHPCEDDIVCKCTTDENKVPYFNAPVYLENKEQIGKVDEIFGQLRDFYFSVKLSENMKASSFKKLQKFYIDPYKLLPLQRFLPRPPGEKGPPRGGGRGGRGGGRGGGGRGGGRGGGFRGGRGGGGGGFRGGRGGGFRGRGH

For `O=c1[nH]cc(F)c(=O)[nH]1` [5-fluorouracil], the 50% inhibitory concentration (IC50) in the data set with RCC45 (RCC45, No PPS) was 7580 nM; in the data set with RCC45 (RCC45, With 10 μg/ml PPS) it was 5150 nM; in the data set on RCC54 (RCC54, No PPS), 7270 nM; in the data set with RCC54 (RCC54, With 10 μg/ml PPS), 4650 nM; in the data set with RCC54 (RCC54, With 10 μg/ml PPS plus 30 μM suramin), 2340 nM; with RCC54 (RCC54, With 100 μg/ml PPS) it was 3580 nM.

Turning to `CC(=O)O[C@H]1C(=O)[C@@]2(C)[C@H]([C@H](OC(=O)c3ccccc3)[C@]3(O)C[C@H](OC(=O)[C@H](O)[C@@H](NC(=O)c4ccccc4)c4ccccc4)C(C)=C1C3(C)C)[C@]1(OC(C)=O)CO[C@@H]1C[C@@H]2O` [paclitaxel], the concentration for half-maximal inhibition (IC50) came out at 2.42 nM in the data set on FaDu cells (96 h, +IPTG cells, read-out: IC50 of paclitaxel, clone #1); 2.53 nM in the data set on FaDu cells (96 h, +IPTG cells, read-out: IC50 of paclitaxel, clone #2); 2.46 nM in the data set with FaDu cells (96 h, +antisense cells (no IPTG), read-out: IC50 of paclitaxel, clone #1); 2.87 nM in the data set with FaDu cells (96 h, +antisense cells (no IPTG), read-out: IC50 of paclitaxel, clone #2); 2.56 nM with FaDu cells (96 h, +sense +IPTG cells, read-out: IC50 of paclitaxel, clone #1); 2.21 nM in the data set with FaDu cells (96 h, +sense +IPTG cells, read-out: IC50 of paclitaxel, clone #2). Further, the IC50 in the data set on FaDu cells (96 h, Control cells, read-out: IC50 of paclitaxel, clone #1) was 2.04 nM; in the data set with FaDu cells (96 h, Control cells, read-out: IC50 of paclitaxel, clone #2), 2.05 nM; with FaDu cells (+antisense +IPTG cells (IPTG 44 days), read-out: IC50 of paclitaxel, clone #1), 1.3 nM; with FaDu cells (+antisense +IPTG cells (IPTG 57 days), read-out: IC50 of paclitaxel, clone #2) it was 1.33 nM. Further, in data set [1] (Kaplan Meier analysis, monitored for 100 days), the “median time to reach moribundity” value came out at 42 days. Further, the “% Apoptotic cells per tumor” value in [1] (day 10 tumors, Mean ± SD) is reported as 30 ± 17%^a. Further, the “Number of apoptotic cells per 400x field” value in data set [1] (day 10 tumors, Mean ± SD) is 66 ± 34^a. In addition, in [1] (day 10 tumors, Mean ± SD), the “Number of nonapoptotic cells per 400x field” value is 168 ± 53^a. Further, in [1] (mouse, in vivo), the “End-of-experiment body weight, % of pretreatment value” was 97 ± 6^a % of pretreatment value. In addition, in data set [1] (mouse, in vivo), the “body weight loss compared to the pretreatment weight” value is given as below 3%. Besides, the tumor-free survivors result in data set [1] (of 12 animals) was “did not show tumor-free survivors”. In addition, the toxicity-related death result in data set [1] (single agents) is recorded as “no toxicity-related death”.

As for paclitaxel/carboplatin, in data set [2], the MST is 8.1 months, the TTP is on record as 3.1 months, the complete response is listed as below 1% and the overall response rate entry was “about 17%”.

On to pentosan polysulfate [PPS], for which the “concentrations at which anticoagulation is found” value in the data set with anticoagulation is recorded as “above 1 μg/ml”. The plasma concentrations in data set [3] was 200 to 460 ng/mL. The “IC50 of PPS as a single agent” value in data set [4] (96 hours, BrdU incorporation) is reported as ~1,400 μg/ml. Moreover, in data set [4] (at 10 and 100 μg/ml), the “cytotoxicity of PPS” value is “no cytotoxicity”. In addition, the “concentration resulting in 50% inhibition of telomerase activity” value on telomerase (FaDu cells) was found to be 0.56 µg/mL. For the same compound, at telomerase (SKOV-3 cells), the “concentration resulting in 50% inhibition of telomerase activity” value was found to be 0.60 µg/mL. Moreover, at telomerase (both cells (FaDu and SKOV-3)), the “concentrations resulting in 80% inhibition of telomerase activity” value is reported as “less than 10 μg/ml” and the “concentrations resulting in 90% inhibition of telomerase activity” value is listed as “less than 100 μg/ml”. Besides, at telomerase (summary of Example 3), the “concentrations required for 50% inhibition of telomerase activity” value is 0.5 to 0.6 µg/mL.

Broadly, the IC50 is the concentration at which inhibition is half-maximal.
